Assay results as given in patent publication US5750504A, “Antimicrobial proteins” (Zeneca Agrochemicals, priority 1996, dated 1998).

Legend:
[1] = target: T1, porcine α-amylase (porcine pancreas) (Sus scrofa, UniProt P00690); assay: Inhibition of α-amylase; format: biochemical; conditions: porcine enzyme; rates as high as 200 μg/ml
T1 construct: the enzyme from porcine pancreas; purchased Sigma; host or cells: porcine pancreas
T1 sequence (P00690 16-511): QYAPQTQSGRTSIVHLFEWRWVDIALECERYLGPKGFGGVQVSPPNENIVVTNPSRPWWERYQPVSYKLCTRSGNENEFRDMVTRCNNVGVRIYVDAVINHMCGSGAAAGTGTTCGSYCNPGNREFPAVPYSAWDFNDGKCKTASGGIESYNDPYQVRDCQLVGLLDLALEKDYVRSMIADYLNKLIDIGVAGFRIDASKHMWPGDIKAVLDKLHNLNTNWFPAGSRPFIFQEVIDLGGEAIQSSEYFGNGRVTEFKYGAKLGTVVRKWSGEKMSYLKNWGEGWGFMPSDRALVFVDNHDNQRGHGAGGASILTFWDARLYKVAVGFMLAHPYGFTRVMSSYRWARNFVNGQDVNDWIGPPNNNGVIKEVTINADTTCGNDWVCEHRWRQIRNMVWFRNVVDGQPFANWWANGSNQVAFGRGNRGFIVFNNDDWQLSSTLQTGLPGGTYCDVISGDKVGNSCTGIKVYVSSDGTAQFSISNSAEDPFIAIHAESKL
Procedure: (§1) A crude α-amylase extract was prepared from dissected guts of adult cockroaches (Blatta orientalis) by homogenising in 20 mM Tris/HCl, pH 7.5, 10 mM CaCl2 and removal of cell-debris by centrifugation. Human and porcine α-amylases were purchased from Sigma. Type 1-α-amylaseinhibitor from wheat (purchased from Sigma) was used as a positive control. Amylase extracts were incubated with peptides for 20 min at 30° C. prior to addition of starch and enzyme activity was detected using the method of Bernfeld (1955, Methods Enzymol, Colwick and Kaplan eds, vol 1:149-158).
(§2) The α-amylase inhibition activities of Hs-AFP1 and Ah-AMP1 were compared on α-amylases from the three sources to that of the Sorgum bicolor homologue SIα3, previously reported to inhibit insect gut α-amylases (Bloch and Richardson, 1991, FEBS Lett, 279:101-104). SIα3 inhibited the activity of the enzymes from insect gut and human saliva to greater than 70% at rates as low as 5 μg/ml.

[2] = target: T2, Human α-amylase (human saliva) (Homo sapiens, UniProt P0DUB6); assay: Inhibition of α-amylase; format: biochemical; conditions: human enzyme; rates as high as 200 μg/ml
T2 construct: the enzymes from insect gut and human saliva; purchased Sigma; host or cells: human saliva
T2 sequence (P0DUB6 16-511): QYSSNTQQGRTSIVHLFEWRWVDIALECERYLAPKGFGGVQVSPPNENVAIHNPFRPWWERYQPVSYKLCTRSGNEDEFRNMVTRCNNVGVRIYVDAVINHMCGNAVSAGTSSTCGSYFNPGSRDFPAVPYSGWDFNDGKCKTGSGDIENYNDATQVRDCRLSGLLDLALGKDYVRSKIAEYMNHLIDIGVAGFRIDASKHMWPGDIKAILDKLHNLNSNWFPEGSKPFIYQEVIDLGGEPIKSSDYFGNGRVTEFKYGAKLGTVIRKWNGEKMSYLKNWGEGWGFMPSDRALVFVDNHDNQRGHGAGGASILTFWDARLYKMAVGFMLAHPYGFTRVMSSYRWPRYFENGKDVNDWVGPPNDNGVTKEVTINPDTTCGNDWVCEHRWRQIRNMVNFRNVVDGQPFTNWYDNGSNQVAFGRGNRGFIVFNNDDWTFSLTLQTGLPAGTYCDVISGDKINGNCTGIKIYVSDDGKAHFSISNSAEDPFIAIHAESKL
Procedure: as §1, §2

Leptospaeria maculans = assay: Antifungal activity assay (microspectrophotometry); format: cell-based; conditions: for antifungal activity on Leptospaeria maculans (in words): in 1/2PDB+; for IC50: host Brassica
Procedure: (§3) Antifungal activity was measured by microspectrophotometry as previously described (Broekaert, 1990, FEMS Microbiol Lett, 69:55-60). Routinely, tests were performed with 20 μl of a (filter-sterilized) test solution and 80 μl of a suspension of fungal spores (2×10^4 spores/ml) in half strength potato dextrose broth (1/2 PDB). […] Control microcultures contained 20 μl of sterile distilled water and 80 μl of the fungal spore suspension.
(§4) Unless otherwise stated the test organism was Fusarium culmorum (strain IMI 180420) and incubation was done at 25° C. for 48 hours. Percent growth inhibition is defined as 100 times the ratio of the corrected absorbance of the control microculture minus the corrected absorbance of the test microculture over the corrected absorbance at 595 nm of the control microculture. The corrected absorbance values equal the absorbance at 595 nm of the culture measured after 48 hours minus the absorbance at 595 nm measured after 30 min.
(§5) The antifungal potency of the purified proteins was assessed on different plant pathogenic fungi, using the assay described in Example 1. Growth of fungi, collection and harvest of fungal spores and preparation of mycelial fragments were done as previously described (Broekaert et al, 1990, FEMS Microbiol Lett, 69:55-60). Serial dilutions of the antifungal proteins were applied to the fungi, either using growth medium SMF- (the synthetic growth medium of Example 1), medium SMF+ (medium SMF- supplemented with 1 mM CaCl2 and 50 mM KCl), growth medium 1/2 PDB- (half strength potato dextrose broth as in Example 1) or growth medium 1/2 PDB+ (medium 1/2 PDB- supplemented with 1 mM CaCl2 and 50 mM Kcl). The percent growth inhibition was measured by microspectrophotometry. […]
(§6) The abbreviations used are: IC50 =concentration required for 50% growth inhibition determined as described in Example 1; ND=not determined; Sp=spores; PrSp=spores pregerminated in the medium for 24 hours; MF=mycelial fragments preincubated for 48 hours in the medium prior to addition of the proteins; BHR=broad host range; SF=saprophytic fungus; SMF-=synthetic growth medium as described in Example 1; SMF+=SMF- supplemented with 1 mM CaCl2 and 50 mM KCl; 1/2PDB-=half strength potato dextrose broth as described in Example 1; 1/2PDB+=1/2PDB- supplemented with 1 mM CaCl2 and 50 mM KCl.

Alternaria brassicae = assay: Antifungal activity assay (microspectrophotometry); format: cell-based; conditions: for IC50: host Brassica, inoculum Sp, period of incubation in AFP-solution 66
Procedure: as §3, §4, §5, §6

Alternaria longipes = assay: Antifungal activity assay (microspectrophotometry); format: cell-based; conditions: strain CBS620.83, host Nicotiana, inoculum Sp, period of incubation in AFP-solution 70
Procedure: as §3, §4, §5, §6

Cercospora beticola = assay: Antifungal activity assay (microspectrophotometry); format: cell-based; conditions: strain SES; host Beta; medium 1/2PDB+; inoculum PrSp; period of incubation in AFP-solution
Procedure: as §3, §4, §5, §6

[3] = tested on: hyphae of Fusarium culmorum; assay: Morphological effect on hyphae; format: cell-based
[4] = strain LM36uea, medium 1/2PDB+, inoculum Sp, period of incubation in AFP-solution 48
[5] = strain LM36uea, medium 1/2PDB-, inoculum Sp, period of incubation in AFP-solution 48
[6] = strain SES1, medium 1/2PDB+, inoculum PrSp, period of incubation in AFP-solution 120
[7] = strain SES2, medium 1/2PDB+, inoculum PrSp, period of incubation in AFP-solution 120

| Substance | inhibition of α-amylase activity [1] | inhibition of α-amylase activity [2] | antifungal activity on Leptospaeria maculans (in words) (Leptospaeria maculans) | IC50 (Leptospaeria maculans; [4]) [µg/mL] | IC50 (Leptospaeria maculans; [5]) [µg/mL] | IC50 (Leptospaeria maculans; [6]) [µg/mL] | IC50 (Leptospaeria maculans; [7]) [µg/mL] | IC50 (Alternaria brassicae; medium SMF+) [µg/mL] | IC50 (Alternaria brassicae; medium SMF-) [µg/mL] | IC50 (Alternaria longipes; medium SMF+) [µg/mL] | IC50 (Alternaria longipes; medium SMF-) [µg/mL] | IC50 (Cercospora beticola) [µg/mL] | hyper-branching of hyphae of Fusarium culmorum [3] | reduction of activity in medium SMF- versus SMF+ (Alternaria brassicae; on Alternaria brassicae) |
| --- | --- | --- | --- | --- | --- | --- | --- | --- | --- | --- | --- | --- | --- | --- |
| Hs-AFP1: Heuchera sanquinea antifungal protein 1; 5 kDa polypeptide purified from seeds, 54 amino acids, SEQ ID NO 1 (DGVKLCDVPSGTWSGHCGSSSKCSQQCKDREHFAYGGACHYQFPSVKCFCKRQC) | no inhibition | no inhibition | is not | > 100 | 25 | > 100 | > 100 | 3 | 1.5 | 6 | 0.75 | 1.5 | causes hyper-branching |  |
| Ah-AMP1: Aesculus hippocastanum antimicrobial protein 1; 5 kDa polypeptide purified from seeds, 50 amino acids, SEQ ID NO 2 (LCNERPSQTWSGNCGNTAHCDKQCQDWEKASHGACHKRENHWKCFCYFNC) | no inhibition | no inhibition | highly active | 6 | 0.5 | < 0.75 | < 0.75 | 3 | 1.5 | 100 | 25 | 1.5 | does not cause hyper-branching | two-fold |
